{
  "source": "patent US20240180895A1",
  "about": "“USE OF KAPPA OPIOID RECEPTOR AGONISTS TO TREAT CARDIOVASCULAR DISEASE” (Board of Supervisors of Louisiana State University and …, priority 2021, published 2024)",
  "type_in_all_cases": "in vivo, rat",
  "key": {"Sprague-Dawley rats": {"system": "Sprague-Dawley rats", "assay": "Prevention of diuretic resistance to once daily furosemide by difelikefalin, 24-hour urine (FIG. 14)", "conditions": "difelikefalin 20 μg/kg IP added to furosemide 10 mg/kg once daily", "description": "Male Sprague-Dawley rats were placed in individual metabolic cages in a room with 12-hour automatic light on/off control and allowed tap water and rodent chow ad libitum. Over the next two (2) days (control period), rats were administered vehicle (5% NaOH; 1 M PBS, IP) in the morning (9:00 am) and urine was then collected for 24-hours."}, "[1]": {"system": "conscious Sprague-Dawley rats", "assay": "Acute cardiovascular and renal excretory studies with ICV or IV norBNI pretreatment (Example 4)", "conditions": "for Urine osmolality / Urine potassium concentration [K+] / Urine sodium concentration [Na+]: total 90-min urine", "description": "Male Sprague-Dawley rats (Envigo Labs, Indianapolis, IN) were individually housed, allowed tap water and standard rodent diet ad libitum, and kept under a 12-hour light-dark cycle. Rats used in these experiments weighed between 300 and 350 grams and were randomly assigned to experimental groups. All procedures were conducted in accordance with the National Institutes of Health guidelines for the care and use of animals and approved by the Louisiana State University Health Sciences Center Institutional Animal Care and Use Committee.\nAseptic technique was adhered to for all surgeries and detailed surgical methods were followed as previously described.^14 Briefly, 3-5 days before experimentation, rats requiring central ventricle access for administration of drug/vehicle into the brain were anesthetized with ketamine and xylazine and a stainless-steel cannula was stereotaxically implanted into the right lateral cerebral ventricle.^14\nOn the morning of the experiment, rats were anesthetized and maintained with inhaled 2% isoflurane, and polyethylene catheters were surgically placed into the left femoral artery, left femoral vein, and urinary bladder.^15.16 Following surgery, rats were placed in an elevated restrainer for recovery and collection of urine from an indwelling bladder catheter.^15 After completion of experimental protocols, rats were anesthetized with isoflurane and decapitated.\nDuring stabilization of cardiovascular and renal excretory parameters, rats received an isotonic saline infusion (55 μl/min), which lasted throughout the duration of the experiment. To record mean arterial pressure (MAP) and heart rate (HR), arterial catheters were connected to a pressure transducer (MLT0670, ADInstruments, Sydney, Australia), which was connected to Powerlab 8/30 (ADInstruments) and visualized using LabChart software (v8.1.5; ADInstruments). After one hour of recovery from surgery, rats were pretreated with the KOR antagonist norBNI or isotonic saline vehicle through either an intracerebroventricular (ICV) catheter or intravenous (IV) catheter. […] Next, drug or vehicle (isotonic saline) was injected into the femoral vein and urine samples were collected every 10 minutes during a 90-minute experimental period. The following drug concentrations were used: nalfurafine 5 μg/kg, difelikefalin 10 μg/kg, norBNI 30 mg/kg (IV), norBNI 1 μg/5 μL (ICV). All groups are n=6. Urine sodium and potassium were measured using a flame photometer (model 943; Instrumentation Laboratories, Lexington, MA). Urine volume was measured gravimetrically, and urine osmolality was measured using a vapor pressure osmometer (model 5600; WESCOR, Logan, UT).\nAll results are expressed as mean±SEM. For determining statistically different changes at time points within a treatment group, means were compared to the control value using 2-way ANOVA with repeated measures and a post hoc Dunnett test following confirmation of a significant F value. For statistically different changes at individual time points between treatment groups, mean values were compared using 2-way ANOVA with repeated measures and a post hoc Sidak test following confirmation of a significant/value. For means between groups for total urine output, urine sodium concentration, urine potassium concentration, and urine osmolality, a Student/test was used. Statistical significance was characterized as P<0.05 and statistics were performed on Prism 7.05 software (GraphPad Software, Inc, San Diego, CA)."}, "[2]": {"system": "Sprague-Dawley rats placed on a low-salt diet", "assay": "Reversal of furosemide diuretic resistance by difelikefalin in rats on a low sodium diet (FIG. 16)", "conditions": "difelikefalin 20 μg/kg IP added on days 13-17, low sodium diet", "description": "Male Sprague-Dawley rats were placed in individual metabolic cages in a room with 12-hour automatic light on/off control and allowed tap water. For these studies, rats were placed on a low-salt diet (0.1% NaCl) for one week prior to and throughout the experimental protocol. […] For the first two (2) days (control period), rats were administered vehicle (5% NaOH; 1 M PBS, IP) in the morning (9:00 am) and urine was then collected for 5-hours."}, "[3]": {"conditions": "ICV norBNI (1 μg/5 μL) pretreatment"}, "[4]": {"conditions": "IV norBNI (30 mg/kg) pretreatment"}, "[5]": {"conditions": "difelikefalin 10 μg/kg IV, no pretreatment"}},
  "data": [
    {"substance": "Difelikefalin", "values": [
      {"measurement": "Effect on diuretic resistance to furosemide", "setting": "Sprague-Dawley rats", "value": "prevents the diuretic resistance"},
      {"measurement": "Effect on HR", "setting": "[1]; [3]", "value": "No changes in HR"},
      {"measurement": "Effect on MAP", "setting": "[1]; [3]", "value": "no significant change in MAP"},
      {"measurement": "Total urine output", "setting": "[1]; ICV norBNI (1 μg/5 μL) pretreatment, difelikefalin 10 μg/kg or nalfurafine 5 μg/kg IV, 90 min", "value": "5.49 ± 0.75", "unit": "mL"},
      {"measurement": "Urine osmolality", "setting": "[1]; [3]", "value": "280 ± 26.99", "unit": "mmol/kg"},
      {"measurement": "Urine potassium concentration [K+]", "setting": "[1]; [3]", "value": "13.63±3.05", "unit": "μeq/mL"},
      {"measurement": "Urine sodium concentration [Na+]", "setting": "[1]; [3]", "value": "47.92±8.30", "unit": "μeq/mL"},
      {"measurement": "Total urine output", "setting": "[1]; ICV vehicle (5 μL) pretreatment, difelikefalin 10 μg/kg or nalfurafine 5 μg/kg IV, 90 min", "value": "9.64 ± 0.52", "unit": "mL"},
      {"measurement": "Effect on HR", "setting": "[1]; ICV vehicle pretreatment", "value": "No changes in HR"},
      {"measurement": "MAP peak Δ", "setting": "[1]; ICV vehicle pretreatment, peak at 60 min (difelikefalin), 50 min (nalfurafine)", "value": "−4", "unit": "mmHg"},
      {"measurement": "Urine osmolality", "setting": "[1]; ICV vehicle pretreatment", "value": "170.7 ± 12.04", "unit": "mmol/kg"},
      {"measurement": "Urine potassium concentration [K+]", "setting": "[1]; ICV vehicle pretreatment", "value": "8.16±1.81", "unit": "μeq/mL"},
      {"measurement": "Urine sodium concentration [Na+]", "setting": "[1]; ICV vehicle pretreatment", "value": "45.24±6.67", "unit": "μeq/mL"},
      {"measurement": "Effect on HR", "setting": "[1]; [4]", "value": "slight but statistically significant increases in HR"},
      {"measurement": "MAP peak Δ", "setting": "[1]; IV norBNI (30 mg/kg) pretreatment, 80-minute peak for difelikefalin", "value": "−4.5", "unit": "mmHg"},
      {"measurement": "Total urine output", "setting": "[1]; IV norBNI (30 mg/kg) pretreatment, difelikefalin 10 μg/kg or nalfurafine 5 μg/kg IV, 90 min", "value": "4.44 ± 0.28", "unit": "mL"},
      {"measurement": "Urine osmolality", "setting": "[1]; [4]", "value": "515 ± 35.8", "unit": "mmol/kg"},
      {"measurement": "Urine potassium concentration [K+]", "setting": "[1]; [4]", "value": "27.78±5.35", "unit": "μeq/mL"},
      {"measurement": "Urine sodium concentration [Na+]", "setting": "[1]; [4]", "value": "140.4±10.7", "unit": "μeq/mL"},
      {"measurement": "Total urine output", "setting": "[1]; IV vehicle (2 cc/kg) pretreatment, difelikefalin 10 μg/kg or nalfurafine 5 μg/kg IV, 90 min", "value": "9.49 ± 0.30", "unit": "mL"},
      {"measurement": "Effect on HR", "setting": "[1]; IV vehicle pretreatment", "value": "slight but statistically significant increases in HR"},
      {"measurement": "MAP peak Δ", "setting": "[1]; IV vehicle pretreatment, peak at 70 min (difelikefalin), 60 min (nalfurafine)", "value": "−11", "unit": "mmHg"},
      {"measurement": "Urine osmolality", "setting": "[1]; IV vehicle pretreatment", "value": "161.2 ± 9.98", "unit": "mmol/kg"},
      {"measurement": "Urine potassium concentration [K+]", "setting": "[1]; IV vehicle pretreatment", "value": "5.66±1.04", "unit": "μeq/mL"},
      {"measurement": "Urine sodium concentration [Na+]", "setting": "[1]; IV vehicle pretreatment", "value": "38.93±4.01", "unit": "μeq/mL"},
      {"measurement": "Duration of the increase in urine flow rate", "setting": "[1]; [5]", "value": 50, "unit": "min"},
      {"measurement": "Effect on HR", "setting": "[1]; [5]", "value": "Neither IV saline nor difelikefalin altered HR"},
      {"measurement": "Time of peak diuresis", "setting": "[1]; [5]", "value": 30, "unit": "min"},
      {"measurement": "Total urine output", "setting": "[1]; difelikefalin 10 μg/kg IV, no pretreatment (FIG. 9B), 90-minute period, mean±SEM, n=6", "value": "10.62 ± 0.47", "unit": "mL"},
      {"measurement": "Urine osmolality", "setting": "[1]; [5]", "value": "169.70 ± 13.89", "unit": "mmol/kg"},
      {"measurement": "Urine potassium concentration [K+]", "setting": "[1]; [5]", "value": "5.53±0.63", "unit": "μeq/mL"},
      {"measurement": "Urine sodium concentration [Na+]", "setting": "[1]; [5]", "value": "32.22±6.48", "unit": "μeq/mL"},
      {"measurement": "Effect on established diuretic resistance to furosemide", "setting": "[2]", "value": "rescues the established diuretic resistance"}
    ]}
  ]
}
